Read-outs that look alike come from different tables or passages of the source.
Legend:
[1] = Driving performance (real driving on the road) and cognitive/psychomotor test battery after evening or middle-of-the-night dosing (Example 3); format: in vivo, human; conditions: for effect on driving: driving test at 9 am; for effect on memory test, body sway, DSST or critical tracking: cognitive and psychomotor test battery before driving test
Excerpt: The study participants included healthy, male and female subjects between 21 and 45 years of age, with a valid drivers license for at least 3 years.
Following a cognitive and psychomotor test battery, the driving test started at 9 am and lasted for one hour.

[2] = format: in vivo, human
Excerpt: There was a washout of 4 days between each treatment period.
The study included healthy, male and female subjects between 18 and 45 years of age within 30% of ideal weight. The subjects in Part 1 of the study could be of either gender, but within Part 2 of the study there had to be at least 4 subjects of each gender.

[3] = Daytime performance after 5-hour sleep restriction, 4-night placebo-controlled study in healthy adults (Example 4); format: in vivo, human; conditions: 15 mg
Experimental: The study included a 2-night single-blind placebo run-in period, a 4-night double-blind treatment period during which sleep was restricted to 5 hours and a 2-night single-blind placebo run-out period. The study included healthy male and female volunteers 18 to <55 years of age.
2-night run-in period: All patients received placebo
2-night run-out period: All patients received placebo
The primary endpoints included observations based on the Multiple Sleep Latency Test (MSLT) and Slow Wave Sleep (SWS) assessment.

[4] = human, in vivo
[5] = human, in vivo; for residual effect on Choice Reaction Time / residual effect on Critical Flicker Fusion: po
[6] = three-month efficacy study, insomnia; cited from earlier work
[7] = middle-of-the-night administration (4 am; gaboxadol 15 mg, zolpidem 10 mg)

## Cc1ccc(-c2nc3ccc(C)cn3c2CC(=O)N(C)C)cc1 [zolpidem]
[1]; [7]
  effect on driving: numerically greater effect

## CN1CCN(C(=O)OC2c3nccnc3C(=O)N2c2ccc(Cl)cn2)CC1 (centres unmarked) [zopiclone]
[1]
  effect on memory test, body sway, DSST or critical tracking: had effect on several of these tests
[1]; evening dose (gaboxadol 15 mg, zopiclone 7.5 mg)
  effect on driving: numerically greater effect

## Oc1noc2c1CCNC2 [gaboxadol, 4,5,6,7-tetrahydroisoxazolo [5,4-c]pyridine-3-ol]
[2]; both parts of the study
  serious adverse experiences: no serious adverse experiences
[2]; single dose intravenous 5 and 10 mg
  tolerability: generally well tolerated
[2]; single dose oral 2.5 to 20 mg
  tolerability: generally well tolerated
[1]
  effect on memory test, body sway, DSST or critical tracking: no effect
[1]; evening and middle-of-the-night dose 15 mg
  tolerability: well tolerated
[1]; evening dose 15 mg
  effect on driving compared with blood alcohol: less than the effect observed at a 0.05% blood alcohol concentration
[1]; evening treatment 15 mg
  most frequent adverse events: headache and somnolence
[1]; [7]
  effect on driving: clinically relevant impairing effect
[1]; middle-of-the-night treatment 15 mg
  most frequent adverse events: dizziness, nausea and somnolence
[3]; last two Sleep Restriction days, p=0.047, 1 sided
  MSLT, average difference to placebo (longer): 2.01 min
[3]; last two Sleep Restriction days, p=0.058, 1 sided, LDA model
  Karolinska Sleepiness Score (KSS), average difference to placebo (less): 0.68
[3]; last two Sleep Restriction nights, p<0.001, 1 sided
  SWS, average difference to placebo (longer): 20.53 min
[3]; sleep restriction
  biophysiological measures of stress (heart rate variability, cortisol levels, catecholamine levels, body temperature) vs placebo: no differences
  neurocognitive battery effect sizes (daytime performance): no strong evidence that gaboxadol improves daytime performance
[4]
  Oral clearance (CL/F) compared with clearance after intravenous administration: of similar magnitude
[4]; iv
  AUC0-inf, dependence on dose: increased with increasing dose
  Cmax, dependence on dose: increased with increasing dose
  other parameters (CL, t1/2, Vss, fe, and CLR), dependence on dose: independent of dose
  steady-state volume of distribution (Vss): moderate
  systemic clearance (CL): moderate
[4]; po
  other parameters (CL/F, tmax, t1/2, fe, and CLR), dependence on dose: independent of dose
[4]; po, 20 mg
  AUC0-inf, dependence on dose: increased with increasing dose
  Cmax, dependence on dose: increased with increasing dose
[5]
  residual effects on other measurements (MSLT, DSST, Tracking, Memory tests, Body Sway, Leeds Sleep Evaluation Questionnaire): did not show any signs of residual effects
  residual effect on Choice Reaction Time: did not show residual effect
  residual effect on Critical Flicker Fusion: did not show residual effect
[6]
  effects in sleep onset and sleep maintenance: failed to show significant effects

## CCN(CC)CCN1C(=O)CN=C(c2ccccc2F)c2cc(Cl)ccc21 [Flurazepam]
[5]
  residual effect on Choice Reaction Time: showed significant effect
  residual effect on Critical Flicker Fusion: showed significant effect

Reference: patent publication US10111865B2 (priority 2015, dated 2018)
